Measurements taken from PubChem BioAssay (NCI).
Several values for one entry are separate records, joined by “and”; a condition that tells them apart may be missing. Equal values may be shown once.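 In this assay, cells in 96-well plates receive the compound at five concentrations for 48 hours. Endpoints are linearly interpolated between the surrounding concentrations. Here, GI50 denotes the concentration required for 50% inhibition of growth. The concentration for full growth arrest is given as TGI.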

The compounds below were run on MDA-MB-468 breast (assay: inhibition of tumour cell growth, NCI panel, 48 h).

Compound	GI50	TGI
COc1ccc(C(=O)C(CN(C)C)c2ccccc2)cc1 (stereo not given)	1930 nM	4960 nM
O=C(Nc1ccc(Oc2cccc(Cl)c2)c(Cl)c1)c1cccnc1	565 nM	4150 nM
CCc1cc(Nc2nccc(-c3c(-c4ccc(OC)c(C(=O)Nc5c(F)cccc5F)c4)nc4ccccn34)n2)c(OC)cc1N1CCC(N2CCN(S(C)(=O)=O)CC2)CC1	> 82700 nM	> 100000 nM
CO[C@H]1/C=C/C=C/C=C/C[C@H](OC(=O)[C@@H](C)NC(=O)C2CCCCC2)[C@H](C)[C@@H](O)/C(C)=C\CCC2=CC(=O)C=C(NC(=O)C1)C2=O	142 nM	740 nM
CCN(CC)CCn1nc2c3c(cccc3c1=O)-c1ccccc1-2	2220 nM	8430 nM
Nc1ccc(Sc2ccc3c4c2cccc4c(=O)n2c4ccccc4nc32)cc1	3190 nM	20800 nM
CCn1c(-c2nonc2N)nc2c(C#CC(C)(C)O)ncc(OCC3CCNCC3)c21	336 nM	> 25000 nM
NC(=S)c1cn(C2OC(CO)C(O)C2O)c2ncnc(N)c12 (stereo not given)	58.9 nM	252 nM
CCN(Cc1cccc(C)c1)c1ccc(CO)c(Cl)c1	36.2 nM	134 nM
N#CCCCCCn1c2ccccc2c2c3c(c4c5ccccc5[nH]c4c21)C(=O)N(O)C3=O	1480 nM	5980 nM
COc1cc(C2CC(c3cc(Cl)c(C)cc3O)=NN2c2ccc(S(N)(=O)=O)cc2)cc(OC)c1OC (stereo not given)	2640 nM	9070 nM
Clc1ccc2c(NCCNc3nc(Cl)nc4ccccc34)ccnc2c1	583 nM	2030 nM
COC(=O)C1=C(C)NC(C)=C(C(=O)OC)C1c1ccccc1[N+](=O)[O-]	25300 nM	> 100000 nM
Cc1cncc2cccc(S(=O)(=O)N3CCCNC[C@@H]3C)c12	19000 nM	> 91100 nM
Cn1cc(C2=C(c3cn(C)c4cc(Cl)ccc34)C(=O)NC2=O)c2ccccc21	74.4 nM	5960 nM
Nc1cc2ccncc2c2ccccc12	12300 nM	36500 nM
COC(=O)[C@@H](C)C[C@H](Cc1ccccc1)NC(=O)c1csc([C@@H](C[C@H](C(C)C)N(C)C(=O)[C@@H](NC(=O)CN(C)C)C2CC2)OC(C)=O)n1	6.58 nM	
Cn1cc(C2=C(c3cccc(Cl)c3)C(=O)NC2=O)c2ccccc21	4480 nM	24600 nM
Cn1ccnc1C(=O)/C=C/c1ccc(CC(=O)Nc2cc(F)c(F)c(F)c2)cc1	636 nM	1960 nM
CCN(CC)Cc1cc(Nc2c3ccc(Cl)cc3nc3c(C)cccc23)ccc1O	1370 nM	2830 nM
Nc1ncn(C2OC(CO)C(O)C2O)c(=O)n1 (stereo not given)	1210 nM and 925 nM	6450 nM and 8060 nM

Compound	GI50	TGI
COc1ccc(Nc2ccnc3cc(Cl)ccc23)cc1CN(CCCl)CCCl	195 nM	840 nM
COc1cc2cc(Oc3ccc(NC(=O)Nc4cc(C(F)(F)F)cc(C(F)(F)F)c4)cc3)c(C)nc2cc1OCCN1CCCCC1	1670 nM	3320 nM
CN1CCN(Cc2ccc(NC(=O)c3cncc(C#Cc4cncc5[nH]ncc45)c3)cc2C(F)(F)F)CC1	1080 nM	4080 nM
CCN(CC)c1ccc(/C=C2/NC(=O)NC2=O)cc1	981 nM	7840 nM
Cc1cc2nc3c4cc(Cl)ccc4n(CC(=O)NCCN(C)C)c3nc2cc1C	11300 nM	23800 nM
COc1ccc(C2C3=C(COC3=O)N(CCO)c3cc4c(cc32)CCC4)cc1OC (stereo not given)	184 nM	
CCOC(=O)Nc1ccc2nc(Sc3ccc(Cl)cc3)sc2c1	719 nM	3670 nM
Cc1ccc(/C=C2\CN(C(=O)CCN3CCC(=NO)CC3)C/C(=C\c3ccc(C)cc3)C2=O)cc1	1460 nM	3460 nM
O=C(c1nc2ccccc2[nH]1)C1C(c2cccc([N+](=O)[O-])c2)C2CC3CCCCC3N2[C@@]12C(=O)Nc1cc(Cl)ccc12 (stereo not given in full)	1390 nM	4000 nM
Cc1cccc(Cc2cnc(NC(=O)/C=C/c3ccco3)s2)c1	40.7 nM	13200 nM
CC(=O)O[C@H]1Cc2c([nH]c3ccccc23)[C@@H](c2ccc(Cl)cc2)N1C(=O)CCNC(C)(C)C	3180 nM	7670 nM
CCN1CCN(c2nc(NNC(=O)c3cccc(OC)c3)nc(N3CCN(C(c4ccccc4)c4ccccc4)CC3)n2)CC1	1910 nM	4920 nM
O=C(CN1CCN(c2cc3c(cc2F)c(=O)c(C(=O)O)cn3C2CC2)CC1)Nc1ccc(C(=O)/C=C/c2ccccc2)cc1	2450 nM	23200 nM
Cn1cc(-c2nnc(N)nc2-c2c[nH]c3ccc(F)cc23)c2cc(Br)ccc21	1240 nM	7750 nM
O=C(N/N=C\c1cc(Br)cc(Br)c1O)N/N=C/c1cc(Br)cc(Br)c1O	3130 nM	8850 nM
O=C(Nc1ccc(I)cc1F)c1cc(F)ccc1O	898 nM	5300 nM
CCCCOc1nc2ccccc2cc1C1CNC(=O)c2ccccc2N1 (stereo not given)	2030 nM	9560 nM
Fc1ccc(-c2ncn(C3CCNCC3)c2-c2ccnc(Oc3ccc(Oc4ccccc4)cc3)n2)cc1	1940 nM	5570 nM
c1ccc(-c2nn(-c3ccccc3)[n+](-c3ccccc3-c3ccccc3)n2)cc1	189 nM	923 nM
H-KIFKKFKTIIKKVWRIFGRF-NH2	1320 nM	5940 nM
